Measurements from patent US20260232610A1 (priority 2023, published 2026).
Read-outs that look alike come from different tables or passages of the source.

How the values were obtained:
[1] = tested on: Eimeria (overall coccidiosis lesions); assay: Overall coccidiosis lesions (TMLS); format: in vivo, male Ross 308 broilers
[2] = tested on: E. maxima; assay: Coccidiosis lesion scoring (Johnson and Reid, 0-4); format: in vivo, male Ross 308 broilers; details: score 0 (no lesions) to 4 (severe lesions)
[3] = tested on: experimentally induced NE (Eimeria spp. and Clostridium perfringens challenge); format: in vivo, male Ross 308 broilers
[4] = compared to some amino acids such as glycine or arginine; cited from earlier work
[5] = tested on: necrotic enteritis (Clostridium perfringens inoculations); format: in vivo, male Ross 308 broilers; details: for NE score: four chickens per pen
[6] = tested on: E. acervulina; assay: Coccidiosis lesion scoring (Johnson and Reid, 0-4); format: in vivo, male Ross 308 broilers; details: score 0 (no lesions) to 4 (severe lesions)
[7] = day 16 to day 22, challenge period

N=C(N)NCC(=O)O [GAA, guanidinoacetic acid]
E. maxima and coccidiosis lesions compared with untreated control ([1]; day 21): lower amounts | TMLS (overall coccidiosis lesions) ([1]; day 21): 0.60 | TMLS (overall coccidiosis lesions) ([1]; day 22): 0.94 | E. maxima (lesion score) ([2]; day 21): 0.52 | E. maxima (lesion score) ([2]; day 22): 0.88 | Effect on daily feed intake (DFI) over untreated birds ([3]; any period (p>0.05) except a small effect in the pre-challenge period): no significant effect | FCR compared with untreated birds ([3]; challenge period and overall): significantly lower | Daily weight gain (DWG) compared with IUC birds ([3]; challenge period from day 16 to d22): significantly higher | BW_D0 (body weight) ([3]; day 0, before challenge, treatment mean): 46 | DFI_D0-D16 (daily feed intake) ([3]; day 0 to day 16, pre-challenge): 45.9 | DWG_D0-D16 (daily weight gain) ([3]; day 0 to day 16, pre-challenge): 41.0 | FCR_D0-D16 (feed conversion ratio) ([3]; day 0 to day 16, pre-challenge): 1.12 | DFI_D0-D42 (daily feed intake) ([3]; day 0 to day 42, overall): 112.1 | DWG_D0-D42 (daily weight gain) ([3]; day 0 to day 42, overall): 62.6 | FCR_D0-42 (feed conversion ratio) ([3]; day 0 to day 42, overall): 1.80 | BW_D16 (body weight) ([3]; day 16, treatment mean): 711 | DFI_D16-D22 (daily feed intake) [3, 7]: 84.4 | DWG_D16-D22 (daily weight gain) [3, 7]: 72.2 | FCR_D16-D22 (feed conversion ratio) [3, 7]: 1.18 | BW_D22 (body weight) ([3]; day 22, after NE challenge, treatment mean): 1161 | DFI_D22-D34 (daily feed intake) ([3]; day 22 to day 34): 117.3 | DWG_D22-D34 (daily weight gain) ([3]; day 22 to day 34): 75.3 | FCR_D22-D34 (feed conversion ratio) ([3]; day 22 to day 34): 1.56 | BW_D34 (body weight) ([3]; day 34, treatment mean): 2463 | DFI_D34-D42 (daily feed intake) ([3]; day 34 to day 42): 191.0 | DWG_D34-D42 (daily weight gain) ([3]; day 34 to day 42): 108.7 | FCR_D34-D42 (feed conversion ratio) ([3]; day 34 to day 42): 1.77 | BW_D42 (body weight) ([3]; day 42, treatment mean): 3332 | Weight gained more than the negative control ([3]; grower phase): approximately 9 g/day | Weight gained more than the negative control ([3]; overall): approximately 2 g/day | Percentage of NE related mortalities ([3]; overall, on par with antibiotics treated control): strongly reduced | NE related mortality ([3]; percentage of NE related mortalities, overall): 3.33 | Solubility in water [4]: rather low solubility in water | NE percentage (percentage of NE affected birds) ([5]; day 21): 85 | NE score ([5]; day 21): 3.52 | NE percentage (percentage of NE affected birds) ([5]; day 22): 73 | NE scores and percentage of NE affected birds compared with untreated control ([5]; day 22): lower NE scores and a lower percentage of NE affected birds | NE score ([5]; day 22): 2.33 | E. acervulina (lesion score) ([6]; day 21): 0.08 | E. acervuline (lesion score) ([6]; day 22): 0.06
